In the supplement of paper PMC4862054:

Experiments:
CAL-148 [1] = experiment: normalised viability (% of control), CellTiter-Blue; higher = more viable cells (about 100 = DMSO control); conditions: 10 nM; incubation time: 72 h
Method: (§1)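 DSRT, CellTiter-Blue viability, 72 h incubation. Signal is normalised to DMSO and benzethonium chloride controls. Value is the normalised response at dose 3.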

MFM-223 [2] = experiment: as above; conditions: 100 nM; incubation time: 72 h
Method: as §1

MDA-MB-231 [3] = experiment: as above; conditions: 100 nM; incubation time: 72 h
Method: as §1

HCC1143 = experiment: as above; conditions: 100 nM; incubation time: 72 h
Method: as §1

HCC1599 [4] = experiment: as above; conditions: 100 nM; incubation time: 72 h
Method: as §1

MDA-MB-436 = experiment: as above; conditions: 100 nM; incubation time: 72 h
Method: as §1

BT-549 [5] = experiment: as above; conditions: 100 nM; incubation time: 72 h
Method: as §1

HCC1937 = experiment: as above; conditions: 100 nM; incubation time: 72 h
Method: as §1

CAL-85-1 = experiment: as above; conditions: 10 nM; incubation time: 72 h
Method: as §1

BT-474 = experiment: as above; conditions: 100 nM; incubation time: 72 h
Method: as §1

MDA-MB-453 [6] = experiment: as above; conditions: 10 nM; incubation time: 72 h
Method: as §1

CAL-51 [7] = experiment: as above; conditions: 10 nM; incubation time: 72 h
Method: as §1

SK-BR-3 = experiment: as above; conditions: 100 nM; incubation time: 72 h
Method: as §1

Hs578T [8] = experiment: as above; conditions: 100 nM; incubation time: 72 h
Method: as §1

CAL-120 [9] = experiment: as above; conditions: 100 nM; incubation time: 72 h
Method: as §1

DU-4475 [10] = experiment: as above; conditions: 10 nM; incubation time: 72 h
Method: as §1

HDQ-P1 [11] = experiment: as above; conditions: 10 nM; incubation time: 72 h
Method: as §1

MDA-MB-468 = experiment: as above; conditions: 100 nM; incubation time: 72 h
Method: as §1

CAL-120 [12] = experiment: normalised viability (% of control), CellTiter-Blue; higher = more viable cells (about 100 = DMSO control); conditions: incubation time: 72 h
How it was run: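 Each entry is normalised viability at a single listed concentration within a series. It comes from breast cancer cell lines incubated 72 h with compound in 384-well plates, then measured with CellTiter-Blue fluorescence at 560/590 nm. Every plate was normalised between vehicle (100) and a positive kill control (0).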

CAL-148 [13] = experiment: drug sensitivity score (DSS), CellTox Green (DSS (AUC-based score)); higher = stronger drug effect (viability inhibition or cytotoxicity); extreme values may be limits of the assay; conditions: incubation time: 72 h
How it was run: (§2)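 Compound was dispensed into 384-well plates at 5 concentrations in 10-fold steps spanning a 10,000-fold range chosen for each compound, and 20 µl of breast cancer cell suspension was added before 72 h of incubation. CellTox Green fluorescence was read at 485/520 nm, followed by CellTiter-Glo luminescence after 10 min at room temperature. Values on each plate were normalised to 0.1 % DMSO and a positive kill control. The drug sensitivity score came from the area under the fitted dose-response curve.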

MFM-223 [14] = experiment: as above; conditions: incubation time: 72 h
How it was run: as §2

MDA-MB-231 [15] = experiment: as above; conditions: incubation time: 72 h
How it was run: as §2

HCC1599 [16] = experiment: as above; conditions: incubation time: 72 h
How it was run: as §2

BT-549 [17] = experiment: as above; conditions: incubation time: 72 h
How it was run: as §2

MDA-MB-453 [18] = experiment: as above; conditions: incubation time: 72 h
How it was run: as §2

CAL-51 [19] = experiment: as above; conditions: incubation time: 72 h
How it was run: as §2

Hs578T [20] = experiment: as above; conditions: incubation time: 72 h
How it was run: as §2

DU-4475 [21] = experiment: as above; conditions: incubation time: 72 h
How it was run: as §2

HDQ-P1 [22] = experiment: as above; conditions: incubation time: 72 h
How it was run: as §2

| SMILES | normalised viability (CAL-148 [1]) | normalised viability (MFM-223 [2]) | normalised viability (MDA-MB-231 [3]) | normalised viability (HCC1143) | normalised viability (HCC1599 [4]) | normalised viability (MDA-MB-436) | normalised viability (BT-549 [5]) | normalised viability (HCC1937) | normalised viability (CAL-85-1) | normalised viability (BT-474) | normalised viability (MDA-MB-453 [6]) | normalised viability (CAL-51 [7]) | normalised viability (SK-BR-3) | normalised viability (Hs578T [8]) | normalised viability (CAL-120 [9]) | normalised viability (DU-4475 [10]) | normalised viability (HDQ-P1 [11]) | normalised viability (MDA-MB-468) | normalised viability (CAL-120 [12]; 10 nM) | normalised viability (CAL-120 [12]; 1000 nM) | normalised viability (CAL-120 [12]; 10000 nM) | drug sensitivity score (CAL-148 [13]) | drug sensitivity score (MFM-223 [14]) | drug sensitivity score (MDA-MB-231 [15]) | drug sensitivity score (HCC1599 [16]) | drug sensitivity score (BT-549 [17]) | drug sensitivity score (MDA-MB-453 [18]) | drug sensitivity score (CAL-51 [19]) | drug sensitivity score (Hs578T [20]) | drug sensitivity score (DU-4475 [21]) | drug sensitivity score (HDQ-P1 [22]) |
| --- | --- | --- | --- | --- | --- | --- | --- | --- | --- | --- | --- | --- | --- | --- | --- | --- | --- | --- | --- | --- | --- | --- | --- | --- | --- | --- | --- | --- | --- | --- | --- |
| C=CCN(/C=C1/C(=O)O[C@H](COC)[C@@]2(C)C1=C(O)C(=O)C1=C2[C@H](OC(C)=O)C[C@]2(C)C(=O)CC[C@@H]12)CC=C [PX-866] | 100% | 95.2% | 97.8% | 99.2% | 112% | 102% | 98.4% | 99% | 104% | 118% | 99.3% | 110% | 78.1% | 81% | 108% | 97% | 109% | 90.2% | 94.4% | 85.9% | 71.3% |  |  |  |  |  |  |  |  |  |  |
| CC[C@H](CO)Nc1nc(NCc2ccccc2)c2ncn(C(C)C)c2n1 [Roscovitine] | 88.8% | 89% | 88.5% | 83.4% | 116% | 96.5% | 98.5% | 97.3% | 101% | 94.9% | 106% | 104% | 73.1% | 91.1% | 82.7% | 104% | 120% | 108% | 82.7% | 86.1% | 76.3% |  |  |  |  |  |  |  |  |  |  |
| CC[C@H](CO)Nc1nc(NCc2ccccc2)c2ncn(C(C)C)c2n1 [Seliciclib] |  |  |  |  |  |  |  |  |  |  |  |  |  |  |  |  |  |  |  |  |  | 0 | 1.03 | 0 | 0 | 0 | 0 | 0 | 1.26 | 0 | 0 |
| C=CCN(/C=C1/C(=O)O[C@H](COC)[C@@]2(C)C1=C(O)C(=O)C1=C2[C@H](OC(C)=O)C[C@]2(C)C(=O)CC[C@@H]12)CC=C [Sonolisib] |  |  |  |  |  |  |  |  |  |  |  |  |  |  |  |  |  |  |  |  |  | 0 | 0 | 0 | 0 | 0 | 0 | 0 | 0 | 0 | 0 |
| O=[N+]([O-])c1ccc2c(c1)S(=O)(=O)C=C2 [Stattic] |  |  |  |  |  |  |  |  |  |  |  |  |  |  |  |  |  |  |  |  |  | 9.88 | 16.3 | 11.6 | 0 | 19.8 | 2.97 | 16.9 | 18.1 | 0 | 2.09 |
| CC(C)n1cnc2c(NCCc3ccc(O)cc3)nc(-c3csc4ccccc34)nc21 [StemRegenin 1] |  |  |  |  |  |  |  |  |  |  |  |  |  |  |  |  |  |  |  |  |  | 0 | 5.31 | 0 | 0 | 0 | 0 | 0 |  | 0 | 0 |
